Measured values reported in patent publication EP4796540A2, “N-SULFONAMIDE NITROGEN-CONTAINING FUSED HETEROCYCLIC COMPOUND, AND APPLICATION THEREOF” (priority 2023, dated 2025).
Values joined by “and” are separate entries in the source; they are usually repeats but may differ in a detail not shown here. Equal values may be shown once.

How the values were obtained:
[1] = In vivo pharmacokinetic study in rats; conditions: rat, plasma; SD rats (male), IV 1 mg/kg; read-out: Clint
Procedure: 1. Experimental purpose: To test the pharmacokinetics of compounds in SD rats. 2. Experimental instrument and materials: Animal: SD rats (male) Instrument: Intravenous injection: 40% HP-β-CD in water; intragastric administration: 0.2% HPC + 0.5% Tween80 in water. 6 male rats. Fasting treatment was performed in the evening before the administration, with free access to water. During the experiment, the rats were allowed to eat and drink freely, and administered by intravenous injection or gavage. After administration, the animal status was observed, and abnormal behaviors were recorded. Blood was collected via jugular vein puncture at 0.0833, 0.25, 1, 2, 4, 8, and 24 hours after intravenous injection; Blood was collected via jugular vein puncture at 0.25, 0.5, 1, 2, 4, 6, 8, and 24 hours after intragastric administration. 50 µL of plasma sample was taken and added with 500 µL of acetonitrile (containing dexamethasone as an internal standard) to precipitate proteins. The mixture was centrifuged at 4°C and 4000 rpm for 20 minutes, and 300 µL of the supernatant was taken and mixed with 300 µL of Watsons aqueous solution in a 96-well plate. […] Unknown samples were calculated by the standard curve. Pharmacokinetic parameters were calculated by the non-compartmental analysis model of WinNonlin 8.2 software and were presented in a report, including Clint, Cmax, AUC, etc. […]

[2] = In vivo pharmacokinetic study in mice; conditions: mouse, plasma; CD-1 mice (male), IV 1 mg/kg; read-out: Clint
Procedure: 1. Experimental purpose: To test the pharmacokinetics of compounds in CD-1 mice. 2. Experimental instrument and materials: Animals: CD-1 mice (male) Instrument: Intravenous injection: 40% HP-β-CD in water; intragastric administration: 0.2% HPC + 0.5% Tween80 in water. 6 male mice. Fasting treatment was performed in the evening before the administration, with free access to water. During the experiment, the mice were allowed to eat and drink freely, and administered by intravenous injection or gavage. After administration, the animal status was observed, and abnormal behaviors were recorded. Blood was collected from the orbit at 0.0833, 0.25, 1, 2, 4, 8, and 24 hours after intravenous injection, and at 0.25, 0.5, 1, 2, 4, 6, 8, and 24 hours after intragastric administration. 20 µL of plasma sample was taken and added with 250 µL of acetonitrile (containing dexamethasone as an internal standard) to precipitate proteins. The mixture was centrifuged at 4°C and 4000 rpm for 20 minutes, and 180 µL of the supernatant was taken and mixed with 180 µL of an aqueous solution containing 0.1% formic acid in a 96-well plate. […] Unknown samples were calculated by the standard curve. Pharmacokinetic parameters were calculated by the non-compartmental analysis model of WinNonlin 8.2 software and were presented in a report, including Clint, Cmax, AUC, etc. […]

[3] = tested on: human gastric cancer NUGC-3 xenograft; experiment: In vivo efficacy study in human gastric cancer NUGC-3 xenograft mouse model; set-up: species or system NUNU mice; conditions: mice; for Tumor volume (mm^3) (at 19 days): Mean ± SEM
Procedure: 1. Experimental purpose: To test the in vivo anti-tumor activity of compounds in the subcutaneous human gastric cancer NUGC-3 xenograft model in female NUNU mice. 2. Experimental materials: Animals: 6 to 8 weeks old female NUNU mice; Reagents:
Cpd-A vehicle: 0.2% HPC, 0.5% Tween80 in water (w/v/v); Cpd-2 vehicle: 5% DMSO/10% Solutol HS 15/85% pH 4.65 ± 0.10 acetate buffer.
Cell culture: NUGC-3 cells were cultured in RPMI-1640 medium containing 10% FBS.
Molding and grouping: NUGC-3 cells in the exponential growth phase (5 × 10^6) were harvested, resuspended in 0.2 mL of PBS and Matrigel (1:1), and then inoculated subcutaneously into the right flank of NUNU mice to establish a subcutaneous xenograft model. Mice were observed daily for healthy status and tumor growth after cell inoculation. On the 5th day after inoculation, 36 animals were selected, grouped, and the tumor volume of the animals in the group was approximately 150.0 mm^3. The study was divided into 6 groups, with 6 mice in each group, and the administration was performed on the same day (see Table 10).
4. Experimental design: Table 10 is the grouping and administration information for the efficacy experiment. Mice in the G1 group were orally administered vehicle control (5% DMSO/10% Solutol HS 15/85% pH 4.65 ± 0.10 acetate buffer) once a day for a total of 19 days. Mice in the G2 group were orally administered Cpd-A once a day at a dose of 50 mg/kg for a total of 19 days. Mice in the G3 group were orally administered Cpd-A once a day at a dose of 100 mg/kg for a total of 19 days. Mice in the G4 group were orally administered Cpd-2 once a day at a dose of 25 mg/kg for a total of 19 days. Mice in the G5 group were orally administered Cpd-2 once a day at a dose of 50 mg/kg for a total of 19 days. Mice in the G6 group were orally administered Cpd-2 once a day at a dose of 100 mg/kg for a total of 19 days. Table 10. In vivo efficacy study design of NUGC-3 xenograft mouse model
Experimental observation: The health status and mortality of the animals were monitored daily. Routine checks included observing the effect of tumor growth and drug treatment on animals' normal behavior such as mobility, food and water consumption, body weight gain/loss, eye/hair matting and any other abnormal effect. The number of deaths and side effects of the animals in the group were recorded based on the number of the animals in each group. Clinical symptoms observed during the trial were recorded in the raw data. Tumor volume calculation formula: Tumor volume (mm^3) = 0.5 × (tumor long diameter × tumor short diameter^2). During the research process, the entire administration process as well as tumor and body weight measurements were conducted in a Laminar Flow Cabinet.
Statistical analysis: Tumor volume and animal body weight results are expressed in Mean ± SEM. Tumor volumes between different groups were statistically compared and analyzed. All statistical analyses were completed in GraphPad Prism 8.0. The one-way ANOVA method was used to compare whether there was a significant difference in tumor volume or tumor weight between groups, where p ≥ 0.05 was considered as having no significant difference, p < 0.05 was considered as having a significant difference, and p < 0.001 was considered as having an extremely significant difference.

## [2H]C([2H])([2H])Oc1nc(C(=O)NS(C)(=O)=O)ccc1NCC#Cc1cc2c(N[C@@H]3CCN(C)C[C@@H]3F)cccn2c1CC(F)(F)F [Cpd-2, 5-((3-(8-(((3S,4R)-3-Fluoro-1-methylpiperidin-4-yl)amino)-3-(2,2,2-trifluoroethyl)indolizin-2-yl)prop-2-yn-1-yl)amino)-6-(methoxy-d3)-N-(methylsulfonyl)picolinamide]
[1]
  clearance: 3.3 mL/min/kg
[2]
  clearance: 15 mL/min/kg
[3]; 25 mg/kg PO QD*19 Days
  TGI (%) (at 19 days): 65.1%
  Tumor volume (mm^3) (at 19 days): 615.1 mm^3 and 615.1 ± 157.6 mm^3
[3]; 50 mg/kg PO QD*19 Days
  TGI (%) (at 19 days): 96.1%
  Tumor volume (mm^3) (at 19 days): 202.2 mm^3 and 202.2 ± 57.9 mm^3
[3]; 100 mg/kg PO QD*19 Days
  TGI (%) (at 19 days): 103.6%
  Tumor volume (mm^3) (at 19 days): 102.5 mm^3 and 102.5 ± 42.1 mm^3
